{
  "source": "a compilation of properties of binary mixtures (doi:10.1016/j.fluid.2019.06.006)",
  "test": "xn = mol fraction of the nth substance listed",
  "conditions": "100 kPa",
  "data": [
    {"smiles": "CC(=O)[O-].CC[n+]1ccn(C)c1", "note": "+ OC[C@H](O)[C@@H](O)[C@H](O)[C@H](O)CO", "values": [
      {"measurement": "viscosity", "setting": "303.15 K, x2 = 0", "value": 89.4, "unit": "mPa·s"},
      {"measurement": "viscosity", "setting": "323.15 K, x2 = 0", "value": 34.6, "unit": "mPa·s"},
      {"measurement": "viscosity", "setting": "333.15 K, x2 = 0", "value": 23.8, "unit": "mPa·s"}
    ]},
    {"smiles": "OC[C@@H](O)[C@@H](O)[C@H](O)[C@@H](O)CO", "note": "+ CC(=O)[O-].CC[n+]1ccn(C)c1", "values": [
      {"measurement": "viscosity", "setting": "303.15 K, x1 = 0.0941", "value": 307, "unit": "mPa·s"},
      {"measurement": "viscosity", "setting": "303.15 K, x1 = 0.483", "value": 1491.9, "unit": "mPa·s"},
      {"measurement": "viscosity", "setting": "313.15 K, x1 = 0.0941", "value": 155, "unit": "mPa·s"},
      {"measurement": "viscosity", "setting": "313.15 K, x1 = 0.1894", "value": 143.2, "unit": "mPa·s"},
      {"measurement": "viscosity", "setting": "313.15 K, x1 = 0.483", "value": 572, "unit": "mPa·s"},
      {"measurement": "viscosity", "setting": "313.15 K, x1 = 0.5836", "value": 816, "unit": "mPa·s"},
      {"measurement": "viscosity", "setting": "323.15 K, x1 = 0.0941", "value": 88, "unit": "mPa·s"},
      {"measurement": "viscosity", "setting": "323.15 K, x1 = 0.1894", "value": 80.7, "unit": "mPa·s"},
      {"measurement": "viscosity", "setting": "323.15 K, x1 = 0.2859", "value": 292, "unit": "mPa·s"},
      {"measurement": "viscosity", "setting": "323.15 K, x1 = 0.483", "value": 257, "unit": "mPa·s"},
      {"measurement": "viscosity", "setting": "323.15 K, x1 = 0.5836", "value": 348, "unit": "mPa·s"},
      {"measurement": "viscosity", "setting": "333.15 K, x1 = 0.0941", "value": 54.4, "unit": "mPa·s"},
      {"measurement": "viscosity", "setting": "333.15 K, x1 = 0.1894", "value": 49.5, "unit": "mPa·s"},
      {"measurement": "viscosity", "setting": "333.15 K, x1 = 0.2859", "value": 153, "unit": "mPa·s"},
      {"measurement": "viscosity", "setting": "333.15 K, x1 = 0.483", "value": 130.5, "unit": "mPa·s"},
      {"measurement": "viscosity", "setting": "333.15 K, x1 = 0.5836", "value": 170.6, "unit": "mPa·s"}
    ]}
  ]
}
